A word on the IC50: it is the concentration that inhibits the measured activity by half. Higher therefore signals weaker potency in that assay.

SMILES strings stand for the structures.

For one assay, the target named is GTPase KRas [G12D,C118A] (Homo sapiens, UniProt P01116, C118A/G12D). Kind of assay: KRAS G12D Coupled Nucleotide Exchange Assay. The method, then:
The assay plates were then read on a PerkinElmer En Vision Multilabel Reader, using AlphaScreen technology, and data were analyzed using a 4-parameter logistic model to calculate IC50 values.

The target of the next assay is kras g12d tr-fret (Homo sapiens, UniProt P01116, G12D). Briefly: KRAS G12D TR-FRET Assay. On the procedure: The His-tagged KRAS G12D protein (Amgen) was diluted to 20 nM in Assay Buffer (20 mM HEPES, pH 7.4, 10 mM MgCl2, 50 mM NaCl, 0.1% BSA, 0.01% Tween-20, 10 μM GDP) and 2 μL was added to the appropriate wells of the 384-well plate. The plate was incubated for 30 minutes at rt. Biotinylated KRPep-2d substrate (Amgen) was diluted to […] in Assay Buffer and 2 AL was added to all wells and incubated for 1 hour at room temperature. Detection Reagent (0.4 nM LANCE Eu-W1024 Anti-6×His (Perkin Elmer AD0401), 5 nM streptavidin-d2 (Cisbio 610SADLA)) was prepared in Assay Buffer, then 4 AL was added to the plate and incubated for 1 h at rt.
On the technique in general: Time-resolved FRET reads energy transfer from a long-lived donor to a nearby acceptor.

Chain of GTPase KRas [G12D,C118A] (P01116 whole entry G12D/C118A, looked up): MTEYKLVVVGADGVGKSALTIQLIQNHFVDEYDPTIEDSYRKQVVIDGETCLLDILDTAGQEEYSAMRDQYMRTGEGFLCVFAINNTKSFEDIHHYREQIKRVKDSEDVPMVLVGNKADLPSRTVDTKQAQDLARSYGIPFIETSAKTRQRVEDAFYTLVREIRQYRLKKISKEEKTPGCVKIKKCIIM
Chain of kras g12d tr-fret (P01116 whole entry G12D): as the sequence (P01116 whole entry G12D/C118A, looked up) above, with A118C counted along it

For the compound `N#Cc1c(N)sc2c(F)ccc(-c3c(Cl)cc4c(N5CC6CC(O)C(C6)C5)nc(OC[C@@]56CCCN5C[C@H](F)C6)nc4c3F)c12` (mixture of isomers) [US20250163064, Example 7], the IC50 amounted to 6 nM on GTPase KRas [G12D,C118A] and 4 nM on kras g12d tr-fret.

Turning to `N#Cc1c(N)sc2c(F)ccc(-c3c(Cl)cc4c(N5CCCC[C@@H](O)C5)nc(OC[C@@]56CCCN5C[C@H](F)C6)nc4c3F)c12` [US20250163064, Example 4], the IC50 at GTPase KRas [G12D,C118A] was determined as 6 nM; on kras g12d tr-fret, 4 nM.

For the compound `N#Cc1c(N)sc2c(F)ccc(-c3c(Cl)cc4c(N5CCCC(C#N)CC5)nc(OC[C@@]56CCCN5C[C@H](F)C6)nc4c3F)c12` (some centres undefined) [US20250163064, Example 3], the half-inhibitory concentration (IC50) amounted to 7 nM against GTPase KRas [G12D,C118A] and 4 nM on kras g12d tr-fret.

As to `N#Cc1c(N)sc2c(F)ccc(-c3c(Cl)cc4c(N5CCCC6(CNC(=O)O6)C5)nc(OC[C@@]56CCCN5C[C@H](F)C6)nc4c3F)c12` (some centres undefined) [US20250163064, Example 17], the IC50 at GTPase KRas [G12D,C118A] was 6 nM; on kras g12d tr-fret it was 3 nM.

Turning to `N#Cc1c(N)sc2c(F)ccc(-c3c(Cl)cc4c(N5CCOCC(=O)C5)nc(OC[C@@]56CCCN5C[C@H](F)C6)nc4c3F)c12` [US20250163064, Example 6], inhibition against GTPase KRas [G12D,C118A] was half-maximal at 5 nM (IC50).

These data come from BindingDB's records for patent US20250163064 (Amgen, 2025).
